{"source": "patent US20260345619A1", "about": "(Principia Biopharma Inc., priority 2023, published 2026)", "origin": "cited, not measured here", "key": {"[1]": {"details": "read-out: IC50 for RLK; cited from earlier work"}, "[2]": {"test_system": "other TEC family members", "details": "preclinical assays; cited from earlier work"}}, "data": [{"smiles": "CC(C)(C=C(C#N)C(=O)N1CCC[C@@H](n2nc(-c3ccc(Oc4ccccc4)cc3F)c3c(N)ncnc32)C1)N1CCN(C2COC2)CC1", "note": "(mixture of isomers) [rilzabrutinib, (R)-2-[3-[4-amino-3-(2-fluoro-4-phenoxy-phenyl)pyrazolo[3,4-d]pyrimidin-1-yl]piperidine-1-carbonyl]-4-methyl-4-[4-(oxetan-3-yl)piperazin-1-yl]pent-2-enenitrile]", "values": [{"measurement": "IC50", "setting": "[1]", "result": 1.2, "unit": "nM"}, {"measurement": "binding to other TEC family members over time", "setting": "[2]", "result": "decayed rapidly over time"}]}]}
